From patent US11707462B2, “Checkpoint kinase 1 (CHK1) inhibitors and uses thereof” (Boundless Bio, Inc., priority 2021, dated 2023)

Columns and labels:
[1] = target: T1, Full-length human Chk1 protein (Homo sapiens, UniProt O14757); experiment: Kinase HTRF biochemical assay (HTRF KinEASE), Chk1 enzyme activity; details: full-length human Chk1, ATP 1 mM, 60 minutes at room temperature
T1 construct: purchased Carna Biosciences, Inc. 02-117
T1 sequence (O14757 1-476): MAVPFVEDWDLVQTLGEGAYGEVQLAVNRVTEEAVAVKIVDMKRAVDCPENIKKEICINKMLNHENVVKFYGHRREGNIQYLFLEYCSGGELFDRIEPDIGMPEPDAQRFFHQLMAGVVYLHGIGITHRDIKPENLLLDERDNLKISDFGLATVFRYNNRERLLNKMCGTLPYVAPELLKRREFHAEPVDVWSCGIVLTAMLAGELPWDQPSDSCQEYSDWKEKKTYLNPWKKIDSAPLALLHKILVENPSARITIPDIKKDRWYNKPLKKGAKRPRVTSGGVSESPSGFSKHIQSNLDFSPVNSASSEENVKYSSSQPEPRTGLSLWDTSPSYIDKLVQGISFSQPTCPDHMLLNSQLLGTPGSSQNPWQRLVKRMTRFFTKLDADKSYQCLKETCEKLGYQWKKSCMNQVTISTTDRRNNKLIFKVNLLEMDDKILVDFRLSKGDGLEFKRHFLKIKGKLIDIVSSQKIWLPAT
Method: Example A: Kinase HTRF Biochemical Assay
Chk1 enzyme activity was measured using an HTRF KinEASE assay (Cisbio, catalog no. 62ST1PEC). Full-length human Chk1 protein (GenBank accession number NP_001265.1) was obtained from Carna Biosciences, Inc. (Kobe, Japan, catalog no. 02-117). The enzyme reaction was carried out in assay buffer containing (final concentrations): Chk1 enzyme (0.012 ng/μL), MgCl2 (5 mM) and DTT (1 mM). To determine compound dose response, DMSO stock solutions were serially diluted in a 10-point concentration series in duplicate. Compound solution (50 nL) was added to 384-well assay plates (Greiner, catalog no. 784075). To each well containing compound solution was added assay buffer solution (5 μL). Plates were centrifuged at 1000 rpm for 1 minute, then incubated at room temperature for 10 minutes. The reaction was started by addition of substrate buffer (5 μL/well) containing (final concentrations): STK substrate 1-biotin (120 nM) and ATP (1 mM). Assay plates were centrifuged at 1000 rpm for 1 minute, then incubated at room temperature for 60 minutes. The reaction was stopped by addition of detection buffer (Cisbio, 10 μL) containing (final concentrations): STK antibody-cryptate (0.25 nM) and streptavidin-XL665 (7.5 nM). Plates were centrifuged at 1000 rpm for 1 minute, then incubated at 25° C. for 2 hours. HTRF signal was read on an EnVision multimode plate reader […] in HTRF mode. Data were fit to dose-response curves using XLfit (IDBS, Surrey, UK) or Prism (GraphPad Software, La Jolla, Calif., US) to calculate IC50 values for each compound tested.

p-CHK1 (Ser345) = experiment: AlphaLISA SureFire Ultra p-CHK1 (Ser345) cellular assay in HT29 cells; assay type: cell-based; details: Homo sapiens, HT-29, 16 h at 37° C.
Method: Example B: AlphaLisa Cellular Assay
Compound activity in cells was measured using an AlphaLISA® SureFire® Ultra™ p-CHK1 (Ser345) assay (Perkin Elmer, catalog no. ALSU-PCHK1-A10K). HT29 cells were cultured in McCoy 5A medium with 10% FBS and 1% penicillin-streptomycin and seeded to 96-well plates (Corning, catalog no. 3599). Compounds were serially diluted in DMSO over a 10-point dose range with 3-fold dilution and to each well containing cells was added compound solution. Plates were centrifuged at 1000 rpm for 30 seconds. Plates were incubated at 37° C. for 16 h. Supernatant was removed by flicking the plate against a paper towel. Wells were washed once with PBS solution. To each well was added freshly prepared lysis buffer and plates were agitated on a plate shaker at 400 rpm for 30 min. The 96-well cell plates were centrifuged at 1500 rpm for 1 minute. From each well was transferred 10 μL of the lysates to a 384-well Optiplate™ (Perkin Elmer, catalog no. 6007290). To each well was added Acceptor Mix (5 μL) and the plates were sealed and wrapped in foil. Plates were agitated on a plate shaker for 2 minutes, then incubated at room temperature for 1 h. To each well was added Donor Mix (5 μL) and the plates were sealed and wrapped in foil. Plates were agitated on a plate shaker for 2 minutes, then incubated at room temperature for 1 h. AlphaLisa signal was read on an EnVision multimode plate reader (Perkin Elmer). Data were fit to dose-response curves using XLfit (IDBS, Surrey, UK) or Prism (GraphPad Software, La Jolla, Calif., US) to calculate IC50 values for each compound tested.

SMILES: N#Cc1cnc(Nc2cc(-c3ccccc3O[C@H]3CC[C@@H](N)C3)[nH]n2)cn1 [Example 2-1, 5-((5-(2-(((1S,3R)-3-aminocyclopentyl)oxy)phenyl)-1H-pyrazol-3-yl)amino)pyrazine-2-carbonitrile]
- IC50 [1]: 500 to 1000 nM
- IC50 (p-CHK1 (Ser345)): > 1000 nM

SMILES: Cc1cc(F)c(-c2cc(Nc3cnc(C#N)cn3)n[nH]2)c(O[C@@H]2CC[C@H](N)C2)c1 [Example 5-2, 5-((5-(2-(((1R,3S)-3-aminocyclopentyl)oxy)-6-fluoro-4-methylphenyl)-1H-pyrazol-3-yl)amino)pyrazine-2-carbonitrile]
- IC50 [1]: 10 to 100 nM
- IC50 (p-CHK1 (Ser345)): 100 to 500 nM

SMILES: N#Cc1cnc(Nc2cc(-c3ccccc3O[C@H]3C[C@@H](N)C3)[nH]n2)cn1 [Example 1-10, 5-((5-(2-((1s,3s)-3-aminocyclobutoxy)phenyl)-1H-pyrazol-3-yl)amino)pyrazine-2-carbonitrile]
- IC50 [1]: 100 to 500 nM
- IC50 (p-CHK1 (Ser345)): > 1000 nM

SMILES: CN[C@@H]1CC[C@@H](Oc2cc(Cl)cc(F)c2-c2cc(Nc3cnc(C#N)cn3)n[nH]2)C1 [Example 3-25, 5-((5-(4-chloro-2-fluoro-6-(((1R,3R)-3-(methylamino)cyclopentyl)oxy)phenyl)-1H-pyrazol-3-yl)amino)pyrazine-2-carbonitrile]
- IC50 [1]: 10 to 100 nM
- IC50 (p-CHK1 (Ser345)): 100 to 500 nM

SMILES: Cc1ccc(O[C@H]2CC[C@H](N)C2)c(-c2cc(Nc3cnc(C#N)cn3)n[nH]2)n1 [Example 3-44, 5-((5-(3-(((1S,3S)-3-aminocyclopentyl)oxy)-6-methylpyridin-2-yl)-1H-pyrazol-3-yl)amino)pyrazine-2-carbonitrile]
- IC50 [1]: 10 to 100 nM
- IC50 (p-CHK1 (Ser345)): 500 to 1000 nM

SMILES: CN[C@H]1C[C@H](Oc2ccccc2-c2cc(Nc3cnc(C#N)cn3)n[nH]2)C1 [Example 1-38, 5-((5-(2-((1r,3r)-3-(methylamino)cyclobutoxy)phenyl)-1H-pyrazol-3-yl)amino)pyrazine-2-carbonitrile]
- IC50 [1]: 10 to 100 nM
- IC50 (p-CHK1 (Ser345)): 100 to 500 nM

SMILES: N#Cc1cnc(Nc2cc(-c3c(O[C@@H]4CC[C@H](N)C4)ccc(F)c3F)[nH]n2)cn1 [Example 3-18, 5-((5-(6-(((1R,3S)-3-aminocyclopentyl)oxy)-2,3-difluorophenyl)-1H-pyrazol-3-yl)amino)pyrazine-2-carbonitrile]
- IC50 [1]: 10 to 100 nM
- IC50 (p-CHK1 (Ser345)): 100 to 500 nM

SMILES: COc1cc(F)cc(O[C@@H]2CC[C@H](N)C2)c1-c1cc(Nc2cnc(C#N)cn2)n[nH]1 [Example 1-28, 5-((5-(2-(((1R,3S)-3-aminocyclopentyl)oxy)-4-fluoro-6-methoxyphenyl)-1H-pyrazol-3-yl)amino)pyrazine-2-carbonitrile]
- IC50 [1]: ≤ 10 nM
- IC50 (p-CHK1 (Ser345)): ≤ 50 nM

SMILES: CN[C@@H]1CC[C@@H](Oc2ccc(F)c(F)c2-c2cc(Nc3cnc(C#N)cn3)n[nH]2)C1 [Example 3-1, 5-((5-(2,3-difluoro-6-(((1R,3R)-3-(methylamino)cyclopentyl)oxy)phenyl)-1H-pyrazol-3-yl)amino)pyrazine-2-carbonitrile]
- IC50 [1]: 10 to 100 nM
- IC50 (p-CHK1 (Ser345)): 100 to 500 nM

SMILES: CN[C@@H]1CC[C@@H](Oc2ccc(C)nc2-c2cc(Nc3cnc(C#N)cn3)n[nH]2)C1 [Example 3-45, 5-((5-(6-methyl-3-(((1R,3R)-3-(methylamino)cyclopentyl)oxy)pyridin-2-yl)-1H-pyrazol-3-yl)amino)pyrazine-2-carbonitrile]
- IC50 [1]: ≤ 10 nM
- IC50 (p-CHK1 (Ser345)): ≤ 50 nM

SMILES: Cc1nc(-c2cc(Nc3cnc(C#N)cn3)n[nH]2)c(O[C@@H]2CC[C@H](N)C2)cc1F [Example 3-50, 5-((5-(3-(((1R,3S)-3-aminocyclopentyl)oxy)-5-fluoro-6-methylpyridin-2-yl)-1H-pyrazol-3-yl)amino)pyrazine-2-carbonitrile]
- IC50 [1]: 10 to 100 nM
- IC50 (p-CHK1 (Ser345)): 50 to 100 nM

SMILES: COc1cccc(O[C@@H]2CC[C@H]2N)c1-c1cc(Nc2cnc(C#N)cn2)n[nH]1 [Example 3-2, 5-((5-(2-((1R,2R)-2-aminocyclobutoxy)-6-methoxyphenyl)-1H-pyrazol-3-yl)amino)pyrazine-2-carbonitrile]
- IC50 [1]: ≤ 10 nM
- IC50 (p-CHK1 (Ser345)): ≤ 50 nM

SMILES: COc1cccc(O[C@@H]2CC[C@@H](N)C2)c1-c1cc(Nc2cnc(C#N)cn2)n[nH]1 [Example 1-8, 5-((5-(2-(((1R,3R)-3-aminocyclopentyl)oxy)-6-methoxyphenyl)-lH-pyrazol-3-yl)amino)pyrazine-2-carbonitrile]
- IC50 [1]: ≤ 10 nM
- IC50 (p-CHK1 (Ser345)): ≤ 50 nM

SMILES: N#Cc1cnc(Nc2cc(-c3c(F)cccc3O[C@H]3CC[C@H](N)CC3)[nH]n2)cn1 [Example 1-19, 5-((5-(2-(((1r,4r)-4-aminocyclohexyl)oxy)-6-fluorophenyl)-1H-pyrazol-3-yl)amino)pyrazine-2-carbonitrile]
- IC50 [1]: 10 to 100 nM
- IC50 (p-CHK1 (Ser345)): 100 to 500 nM

SMILES: COc1cc(Cl)cc(O[C@H]2CC[C@H](N)CC2)c1-c1cc(Nc2cnc(C#N)cn2)n[nH]1 [Example 1-21, 5-((5-(2-(((1r,4r)-4-aminocyclohexyl)oxy)-4-chloro-6-methoxyphenyl)-1H-pyrazol-3-yl)amino)pyrazine-2-carbonitrile]
- IC50 [1]: ≤ 10 nM
- IC50 (p-CHK1 (Ser345)): 50 to 100 nM

SMILES: CN[C@@H]1CC[C@@H](Oc2cccc(F)c2-c2cc(Nc3cnc(C#N)cn3)n[nH]2)C1 [Example 1-43, 5-((5-(2-fluoro-6-(((1R,3R)-3-(methylamino)cyclopentyl)oxy)phenyl)-1H-pyrazol-3-yl)amino)pyrazine-2-carbonitrile]
- IC50 [1]: 10 to 100 nM
- IC50 (p-CHK1 (Ser345)): ≤ 50 nM

SMILES: COc1cccc(O[C@@H]2CC[C@H](N)C2)c1-c1cc(Nc2cnc(C#N)cn2)n[nH]1 [Example 1-7, 5-((5-(2-(((1R,3S)-3-aminocyclopentyl)oxy)-6-methoxyphenyl)-1H-pyrazol-3-yl)amino)pyrazine-2-carbonitrile]
- IC50 [1]: ≤ 10 nM
- IC50 (p-CHK1 (Ser345)): ≤ 50 nM

SMILES: CN[C@H]1C[C@H](Oc2ccc(C)nc2-c2cc(Nc3cnc(C#N)cn3)n[nH]2)C1 [Example 1-61, 5-((5-(6-methyl-3-((1r,3r)-3-(methylamino)cyclobutoxy)pyridin-2-yl)-1H-pyrazol-3-yl)amino)pyrazine-2-carbonitrile]
- IC50 [1]: 10 to 100 nM
- IC50 (p-CHK1 (Ser345)): 100 to 500 nM

SMILES: Cc1cc(F)c(-c2cc(Nc3cnc(C#N)cn3)n[nH]2)c(O[C@@H]2CC[C@@H](N)C2)c1 [Example 5-1, 5-((5-(2-(((1R,3R)-3-aminocyclopentyl)oxy)-6-fluoro-4-methylphenyl)-1H-pyrazol-3-yl)amino)pyrazine-2-carbonitrile]
- IC50 [1]: ≤ 10 nM
- IC50 (p-CHK1 (Ser345)): ≤ 50 nM

SMILES: CN[C@@H]1CC[C@@H](Oc2ccccc2-c2cc(Nc3cnc(C#N)cn3)n[nH]2)C1 [Example 1-42, 5-((5-(2-(((1R,3R)-3-(methylamino)cyclopentyl)oxy)phenyl)-1H-pyrazol-3-yl)amino)pyrazine-2-carbonitrile]
- IC50 [1]: 10 to 100 nM
- IC50 (p-CHK1 (Ser345)): 50 to 100 nM

SMILES: N#Cc1cnc(Nc2cc(-c3nc(C4CC4)ccc3O[C@@H]3CC[C@H](N)C3)[nH]n2)cn1 [Example 4-5, 5-((5-(3-(((1R,3S)-3-aminocyclopentyl)oxy)-6-cyclopropylpyridin-2-yl)-1H-pyrazol-3-yl)amino)pyrazine-2-carbonitrile]
- IC50 [1]: ≤ 10 nM
- IC50 (p-CHK1 (Ser345)): ≤ 50 nM
